Legend:
PI3Kα = target: T1, PI3Kα (Homo sapiens, UniProt P42336); assay: In vitro PI3 kinase enzyme assay (PI3K ATP loss), alpha; format: biochemical; details: average if run more than once; read-out: ATP Loss (PBKα) IC50 μM (Avg)
T1 construct: Full length p110 subunits of PI3K α, β and δ, N-terminally labeled with polyHis tag; polyHis (N); made in house; host or cells: Sf9 insect cells (baculovirus)
Method: (§1) Full length p110 subunits of PI3K α, β and δ, N-terminally labeled with polyHis tag, can be co-expressed with p85 with Baculo virus expression vectors in sf9 insect cells. P110/p85 heterodimers can be purified by sequential Ni-NTA, Q-HP, Superdex-100 chromatography. Purified α, β and δ isozymes can be stored at −20° C. in 20 mM Tris, pH 8, 0.2M NaCl, 50% glycerol, 5 mM DTT, 2 mM Na cholate. […] The γ isozyme can be purified by sequential Ni-NTA, Superdex-200, Q-HP chromatography. The γ isozyme can be stored frozen at −80° C. in NaH2PO4, pH 8, 0.2M NaCl, 1% ethylene glycol, 2 mM β-mercaptoethanol.
(§2) In Vitro PI3 Kinase Enzyme Assays (PI3K Atploss)
(§3) PI3K enzyme assays (alpha, beta, delta and gamma) can be performed in 25 μL with the above final concentrations of components in white polyproplyene plates. Phosphatidyl inositol phosphoacceptor, PtdIns(4,5)P2 (eg. P4508) can be obtained from Echelon Biosciences, Salt Lake City, Utah. […] Test compounds can be dissolved in DMSO and diluted with three-fold serial dilutions. The compound in DMSO (1 μL) may be added per test well, and the inhibition relative to reactions containing no compound, with and without enzyme can be determined After assay incubation at RT, the reaction can be stopped and residual ATP can be determined by addition of an equal volume of a commercial ATP bioluminescence kit (Perkin Elmer EasyLite, Perkin Elmer, Waltham, Mass.) according to the manufacturer's instructions, and detected using an Analyst GT luminometer.

PI3Kβ = target: T2, PI3Kβ (Homo sapiens, UniProt P42338); assay: In vitro PI3 kinase enzyme assay (PI3K ATP loss), beta; format: biochemical; details: average if run more than once
T2 construct: Full length p110 subunits of PI3K α, β and δ, N-terminally labeled with polyHis tag; polyHis (N); made in house; host or cells: Sf9 insect cells (baculovirus)
T2 sequence (P42338 whole entry): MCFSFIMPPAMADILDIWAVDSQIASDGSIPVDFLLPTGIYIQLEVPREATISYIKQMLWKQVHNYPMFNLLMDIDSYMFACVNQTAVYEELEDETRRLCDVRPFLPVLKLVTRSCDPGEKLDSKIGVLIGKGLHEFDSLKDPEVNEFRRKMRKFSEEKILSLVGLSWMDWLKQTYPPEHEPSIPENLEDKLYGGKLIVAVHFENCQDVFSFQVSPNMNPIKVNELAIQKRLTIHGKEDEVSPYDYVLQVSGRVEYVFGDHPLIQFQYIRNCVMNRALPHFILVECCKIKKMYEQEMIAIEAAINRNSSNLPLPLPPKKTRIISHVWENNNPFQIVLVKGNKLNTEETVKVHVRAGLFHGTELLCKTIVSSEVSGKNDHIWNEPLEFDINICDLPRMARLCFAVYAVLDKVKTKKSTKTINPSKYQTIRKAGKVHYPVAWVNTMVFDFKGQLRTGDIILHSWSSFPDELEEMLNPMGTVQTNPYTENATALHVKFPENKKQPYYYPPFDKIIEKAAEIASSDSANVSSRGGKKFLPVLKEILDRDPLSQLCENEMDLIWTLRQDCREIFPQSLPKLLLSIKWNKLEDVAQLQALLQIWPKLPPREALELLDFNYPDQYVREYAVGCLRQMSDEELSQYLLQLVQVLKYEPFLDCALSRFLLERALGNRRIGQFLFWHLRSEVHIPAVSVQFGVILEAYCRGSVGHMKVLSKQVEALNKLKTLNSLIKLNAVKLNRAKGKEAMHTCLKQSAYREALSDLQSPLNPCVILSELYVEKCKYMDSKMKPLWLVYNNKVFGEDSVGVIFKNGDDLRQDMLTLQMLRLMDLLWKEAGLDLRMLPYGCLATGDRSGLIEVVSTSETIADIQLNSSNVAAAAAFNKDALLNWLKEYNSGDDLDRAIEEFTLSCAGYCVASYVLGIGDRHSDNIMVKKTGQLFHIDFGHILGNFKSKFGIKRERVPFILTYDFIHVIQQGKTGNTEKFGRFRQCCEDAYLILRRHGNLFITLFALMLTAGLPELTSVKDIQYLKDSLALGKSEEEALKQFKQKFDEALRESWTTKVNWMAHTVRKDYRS
T2 sequence (P27986 whole entry partner): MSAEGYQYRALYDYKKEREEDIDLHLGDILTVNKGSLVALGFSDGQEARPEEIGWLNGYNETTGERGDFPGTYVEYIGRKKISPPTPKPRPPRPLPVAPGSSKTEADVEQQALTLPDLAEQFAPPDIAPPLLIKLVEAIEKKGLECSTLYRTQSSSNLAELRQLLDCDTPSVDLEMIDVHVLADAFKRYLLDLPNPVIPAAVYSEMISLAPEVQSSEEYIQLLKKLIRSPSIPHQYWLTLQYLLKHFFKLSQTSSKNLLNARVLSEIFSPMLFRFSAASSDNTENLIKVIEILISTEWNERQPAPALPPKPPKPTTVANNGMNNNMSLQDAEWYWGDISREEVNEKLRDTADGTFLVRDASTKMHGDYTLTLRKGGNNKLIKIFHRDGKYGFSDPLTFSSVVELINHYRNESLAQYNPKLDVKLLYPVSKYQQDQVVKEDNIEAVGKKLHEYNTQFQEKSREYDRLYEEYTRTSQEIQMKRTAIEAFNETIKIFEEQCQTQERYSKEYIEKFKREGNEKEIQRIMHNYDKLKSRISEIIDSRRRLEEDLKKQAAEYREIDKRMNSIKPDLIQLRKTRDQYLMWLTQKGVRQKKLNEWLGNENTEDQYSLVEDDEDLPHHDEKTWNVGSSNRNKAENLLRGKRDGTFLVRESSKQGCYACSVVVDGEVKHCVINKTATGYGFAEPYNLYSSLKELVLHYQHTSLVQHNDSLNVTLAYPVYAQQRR
Method: as §1, §2, §3

[1] = test system: phosphorylation of Akt at Ser473; assay: Cell-based phospho-Akt Ser473 assay (HCT116 cell); details: HCT 116 human colon carcinoma cells, IGF-1 stimulated; average
Text: Cell-Based Phospho-Akt Ser473 Assay (HCT116 Cell)
This assay determines the ability of a compound to inhibit the phosphorylation of […] in Akt using a MSD based sandwich immunoassay (Meso Scale Detection, Meso Scale Discovery (MSD), Gaithersburg, Md.). HCT 116 human colon carcinoma cell lines can be grown in McCoy's 5A growth medium (GIBCO, Carlsbad, Calif.) containing 10% FBS (GIBCO, Carlsbad, Calif.) and X1 Penicillin-streptomycin-glutamine (GIBCO, Carlsbad, Calif.). Prior to the assay, cells can be detached from the culture flask with trypsin, and re-suspended in complete media to give a final concentration of 1.6×10^5 cells per mL. Aliquots (100 μl) of the HCT116 cell suspension can be seeded into each well of a 96 well tissue culture plate to give a final density of 16,000 cells per well. Cells can then be incubated overnight at 37° C.
The following day the cells can be treated with serially diluted test compounds and incubated for 2 hours at 37° C. The culture media on the HCT 116 cells can be replaced with 189 μL McCoys media, supplemented with 0.1% BSA (ICN Biomedicals, Inc., Costa Mesa, Calif.). Compounds can be prepared as either 10 mM or 0.5 mM stock solutions in DMSO, and serially diluted 3 fold in a 10-point dose-response curve to give final concentrations that are 200-fold greater than the desired final test concentration. Aliquots (1 μL) of serially-diluted compounds can be transferred to 96 well tissue culture plates containing the HCT 116 cells. […] As a maximum response control, wells can contain 0.5% DMSO in place of compound. The plates can be mixed at 700 rpm for 2 min to ensure even distribution of the test compound and incubated for 2 hours at 37° C. Cells can then be stimulated with insulin-like growth factor 1 (Sigma, St Louis, Mo.) at final concentration of 100 ng/ml for 15 minutes at 37° C. The media can then be removed and the cells treated with 80 μL cell-lysis buffer (MSD) containing a cocktail of protease and phosphatase inhibitors for one hour at 4° C.
25 μL Cell lysate can then be transferred to pre-blocked MSD assay plates pre-coated with a capture antibody specific for Akt, and the plates can be incubated for 2 hours at room temperature. The cell lysates can then be removed and plates can then be washed four times with 200 μl per well of Tris wash buffer (500 mM Tris, PH 7.5, 1.5 M NaCl, 0.2% Tween-20). Subsequently cells can be incubated for 1 hour at room temperature with a 25 μL solution containing the detection antibody, anti-phospho Akt (Ser 473) labeled with an electrochemiluminescent compound (Meso Scale Discovery SULPHO-TAG™ label, MSD, Gaithersburg, Md.). The detection antibody can be removed and plates can then be washed four times with 200 μL per well of Tris wash buffer. An aliquot of 150 μL of diluted MSD read buffer can then be applied to each well, and the electrochemiluminescent signal can be measured using a MSD SECTOR™ plate reader (Meso Scale Discovery, Gaithersburg, Md.). This instrument measures the intensity of emitted light to determine a quantitative measure of phosphorylated Akt in each well. The dose-response data obtained with each compound can be analyzed and the IC50 inhibition of Akt phosphorylation at Ser473 can be calculated.
Activity data for the compounds tested in the PI3K cell based Akt assay is provided in Table 1 under the column heading HCT116 Cell.

T1 sequence (P42336 whole entry): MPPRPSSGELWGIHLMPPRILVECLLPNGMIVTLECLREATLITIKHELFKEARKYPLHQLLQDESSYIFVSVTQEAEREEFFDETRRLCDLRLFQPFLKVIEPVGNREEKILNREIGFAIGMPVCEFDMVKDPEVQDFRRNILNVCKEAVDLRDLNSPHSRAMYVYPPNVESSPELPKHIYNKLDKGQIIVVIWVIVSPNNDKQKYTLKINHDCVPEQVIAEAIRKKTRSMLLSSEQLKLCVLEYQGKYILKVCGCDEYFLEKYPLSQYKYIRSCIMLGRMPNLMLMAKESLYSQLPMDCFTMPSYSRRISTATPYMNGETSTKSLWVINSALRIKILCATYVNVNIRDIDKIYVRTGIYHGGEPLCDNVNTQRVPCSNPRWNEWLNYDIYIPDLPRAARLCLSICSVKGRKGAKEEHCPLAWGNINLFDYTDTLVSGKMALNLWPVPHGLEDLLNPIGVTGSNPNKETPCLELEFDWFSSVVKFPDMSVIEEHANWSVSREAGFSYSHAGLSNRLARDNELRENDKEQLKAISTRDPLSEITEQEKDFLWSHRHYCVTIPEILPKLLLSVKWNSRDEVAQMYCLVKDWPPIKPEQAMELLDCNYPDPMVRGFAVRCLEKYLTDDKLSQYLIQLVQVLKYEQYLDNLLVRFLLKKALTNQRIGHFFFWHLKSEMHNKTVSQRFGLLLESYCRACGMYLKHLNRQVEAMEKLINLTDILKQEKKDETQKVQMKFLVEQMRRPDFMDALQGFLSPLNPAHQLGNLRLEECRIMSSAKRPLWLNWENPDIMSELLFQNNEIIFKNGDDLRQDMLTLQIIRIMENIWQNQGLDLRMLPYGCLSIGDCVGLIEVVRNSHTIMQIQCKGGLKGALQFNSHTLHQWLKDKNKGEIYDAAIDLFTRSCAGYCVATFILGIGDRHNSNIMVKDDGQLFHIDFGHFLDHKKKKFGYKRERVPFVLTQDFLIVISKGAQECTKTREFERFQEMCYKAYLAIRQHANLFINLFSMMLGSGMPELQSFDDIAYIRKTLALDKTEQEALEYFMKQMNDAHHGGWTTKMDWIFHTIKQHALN
T1 sequence (P27986 whole entry partner): as the sequence (P27986 whole entry partner) above

SMILES | IC50 (PI3Kα) [µM] | IC50 (PI3Kβ) [µM] | IC50 [1] [µM]
Oc1cc(-c2ccc3nccc(N4CCOCC4)c3c2)cnc1Cl [Example 19, 2-chloro-5-(4-(4-morpholinyl)-6-quinolinyl)-3-pyridinol] | 0.0258 | 0.644 | 0.311
CC(C)(C)OC(=O)NCCOc1ccnc2ccc(-c3cnc(Cl)c(NS(=O)(=O)c4ccc(F)cc4)c3)cc12 [Example 3, tert-butyl(2-((6-(6-chloro-5-(((4-fluorophenyl)sulfonyl)amino)-3-pyridinyl)-4-quinolinyl)oxy)ethyl)carbamate] | 0.0678 | 0.682 | 1.66
O=S(=O)(Nc1cc(-c2ccc3ncc(O)cc3c2)cnc1Cl)c1ccc(F)cc1 [Example 22, N-(2-chloro-5-(3-hydroxy-6-quinolinyl)-3-pyridinyl)-4-fluorobenzenesulfonamide] | 0.0114 | 0.0552 | 0.654
COc1ccnc2ccc(-c3cnc(Cl)c(NS(=O)(=O)c4ccc(F)cc4)c3)cc12 [Example 8, N-(2-chloro-5-(4-methoxy-6-quinolinyl)-3-pyridinyl)-4-fluorobenzenesulfonamide] | 0.0127 | 0.0147 | 0.222
CS(=O)(=O)Nc1cc(-c2ccc3ncccc3c2)cnc1Cl [Example 12, N-(2-chloro-5-(6-quinolinyl)-3-pyridinyl)methanesulfonamide] | 0.0689 | 0.365 | 2.65
O=S(=O)(Nc1cc(-c2ccc3nccc(N4CCC(O)C4)c3c2)cnc1Cl)c1ccc(F)cc1 (stereo not drawn) [Example 26, N-(2-chloro-5-(4-(3-hydroxy-1-pyrrolidinyl)-6-quinolinyl)-3-pyridinyl)-4-fluorobenzenesulfonamide] | 0.0111 | 0.0778 | 2.96
COc1cnc2ccc(-c3cnc(Cl)c(NS(=O)(=O)c4ccc(F)cc4)c3)cc2c1 [Example 4, N-(2-chloro-5-(3-methoxy-6-quinolinyl)-3-pyridinyl)-4-fluorobenzenesulfonamide] | 0.0162 | 0.0253 | 0.186
CC(c1ccccc1)N1CCN(c2ccnc3ccc(-c4cnc(Cl)c(NS(=O)(=O)c5ccc(F)cc5)c4)cc23)CC1 (stereo not drawn) [Example 29, N-(2-chloro-5-(4-(4-(1-phenylethyl)-1-piperazinyl)-6-quinolinyl)-3-pyridinyl)-4-fluorobenzenesulfonamide] | 0.0069 | 0.0449 | 0.345
O=S(=O)(Nc1cc(-c2ccc3nccc(N4CCC(O)CC4)c3c2)cnc1Cl)c1ccc(F)cc1 [Example 27, N-(2-chloro-5-(4-(4-hydroxy-1-piperidinyl)-6-quinolinyl)-3-pyridinyl)-4-fluorobenzenesulfonamide] | 0.0041 | 0.0126 | 0.176
CS(=O)(=O)Nc1cc(-c2ccc3nccc(Oc4ccccc4)c3c2)cnc1Cl [Example 5, N-(2-chloro-5-(4-phenoxy-6-quinolinyl)-3-pyridinyl)methanesulfonamide] | 0.255 | 0.105 | 1.14

Further lines, results first:

IC50 (PI3Kα) [µM] | IC50 (PI3Kβ) [µM] | IC50 [1] [µM] | SMILES
0.0188 | 0.0934 | 0.0893 | CN(CC#N)c1cnc2ccc(-c3cnc(Cl)c(NS(=O)(=O)c4ccc(F)cc4)c3)cc2n1 [Example 71, N-(2-chloro-5-(3-((cyanomethyl)(methyl)amino)-6-quinoxalinyl)-3-pyridinyl)-4-fluorobenzenesulfonamide]
0.0029 | 0.0648 | 0.0203 | CC1CN(c2cnc3ccc(-c4cnc(Cl)c(NS(=O)(=O)c5ccc(F)cc5)c4)cc3n2)CC(C)O1 (stereo not drawn) [Example 67, N-(2-chloro-5-(3-(2,6-dimethyl-4-morpholinyl)-6-quinoxalinyl)-3-pyridinyl)-4-fluorobenzenesulfonamide]
0.003 | 0.0366 | 0.107 | COc1ccc(S(=O)(=O)Nc2cc(-c3ccc4nccc(N5CCC(OC)CC5)c4c3)cnc2Cl)cc1 [Example 50, N-(2-chloro-5-(4-(4-methoxy-1-piperidinyl)-6-quinolinyl)-3-pyridinyl)-4-methoxybenzenesulfonamide]
0.0417 | 0.0249 | 0.526 | COc1ccc(S(=O)(=O)Nc2cc(-c3ccc4ncccc4c3)cnc2Cl)cc1 [Example 47, N-(2-chloro-5-(6-quinolinyl)-3-pyridinyl)-4-methoxybenzenesulfonamide]
0.0875 | 0.62 | 1.73 | O=S(=O)(Nc1cc(-c2ccnc3cccnc23)cnc1Cl)c1ccc(F)cc1 [Example 42, N-(2-chloro-5-(1,5-naphthyridin-4-yl)-3-pyridinyl)-4-fluorobenzenesulfonamide]
0.0071 | 0.0149 | 0.0914 | O=S(=O)(Nc1cc(-c2ccc3nccc(-c4ccccc4)c3c2)cnc1Cl)c1ccc(F)cc1 [Example 36, N-(2-chloro-5-(4-phenyl-6-quinolinyl)-3-pyridinyl)-4-fluorobenzenesulfonamide]
0.0022 | 0.0079 | 0.0451 | O=S(=O)(Nc1cc(-c2ccc3ncc(NCCOc4ccccc4)nc3c2)cnc1Cl)c1ccc(F)cc1 [Example 57, N-(2-chloro-5-(3-((2-phenoxyethyl)amino)-6-quinoxalinyl)-3-pyridinyl)-4-fluorobenzenesulfonamide]
0.0192 | 0.0463 | 2.63 | O=S(=O)(Nc1cc(-c2ccc3ncc(NCC4CCCNC4)nc3c2)cnc1Cl)c1ccc(F)cc1 (stereo not drawn) [Example 74, N-(2-chloro-5-(3-((3-piperidinylmethyl)amino)-6-quinoxalinyl)-3-pyridinyl)-4-fluorobenzenesulfonamide]
0.136 | 0.18 | 0.108 | COc1ccc(S(=O)(=O)Nc2cc(-c3ccc4nc(N)ccc4c3)cnc2Cl)cc1 [Example 46, N-(5-(2-amino-6-quinolinyl)-2-chloro-3-pyridinyl)-4-methoxybenzenesulfonamide]
0.0074 | 0.0151 | 0.273 | COc1ccc(S(=O)(=O)Nc2cc(-c3ccc4nccc(N(C)C)c4c3)cnc2Cl)cc1 [Example 49, N-(2-chloro-5-(4-(dimethylamino)-6-quinolinyl)-3-pyridinyl)-4-methoxybenzenesulfonamide]
0.0056 | 0.0502 | 0.158 | COc1ccc(CNc2cnc3ccc(-c4cnc(Cl)c(NS(=O)(=O)c5ccc(F)cc5)c4)cc3n2)cc1 [Example 63, N-(2-chloro-5-(3-((4-methoxybenzyl)amino)-6-quinoxalinyl)-3-pyridinyl)-4-fluorobenzenesulfonamide]
0.0041 | 0.0219 | 0.0063 | O=S(=O)(Nc1cc(-c2ccc3nccc(N4CCOCC4)c3c2)cnc1Cl)c1ccccc1Cl [Example 33, 2-chloro-N-(2-chloro-5-(4-(4-morpholinyl)-6-quinolinyl)-3-pyridinyl)benzenesulfonamide]
0.0027 | 0.0842 | 0.141 | O=S(=O)(Nc1cc(-c2ccc3ncc(N4CCCCC4)nc3c2)cnc1Cl)c1ccc(F)cc1 [Example 54, N-(2-chloro-5-(3-(1-piperidinyl)-6-quinoxalinyl)-3-pyridinyl)-4-fluorobenzenesulfonamide]
0.0027 | 0.03 | 0.0405 | COC1CCCN(c2cnc3ccc(-c4cnc(Cl)c(NS(=O)(=O)c5ccc(F)cc5)c4)cc3n2)C1 (stereo not drawn) [Example 66]
